According to patent publication US20220401408A1, “COMPOSITIONS AND METHODS FOR RESCUING RETINAL AND CHOROIDAL STRUCTURE AND FUNCTION” (AUCKLAND UNISERVICES LIMITED, priority 2019, published 2022):

System: hyperglycemic rats
Assay: ERG in hyperglycemic rat diabetic retinopathy model
Type: in vivo, SD rats (spontaneously hyperglycemic strain)
Text: Hyperglycemic Rat Diabetic Retinopathy Model—A spontaneously hyperglycemic strain of SD rats, which developed clinical signs of diabetic retinopathy within 4 weeks of birth were identified and isolated within the Vernon Jansen Animal Research Unit, Faculty of Medical and Health Sciences at the University of Auckland. The identification of these rats presenting with hyperglycemia and microaneurysms provided an opportunity to treat a complex, chronic disease model and assess the treatment effect based upon objective, measurable endpoints, despite lacking precise information on the etiology of the disease. Inbreeding was carried out over three generations and eyes were screened for abnormalities between 4-8 weeks of age. Additional information about these rats is presented as supplementary information. Glucose levels were tested in non-fasting rats (Lee J J, Yi H Y, Yang J W, Shin J S, Kwon J H, Kim C W. Characterization of streptozotocin-induced diabetic rats and pharmacodynamics of insulin formulations. Biosci Biotechnol Biochem. 2003; 67:2396-401) using a Freestyle Optium Glucometer (Abbott Laboratories Ltd., UK) and Freestyle Optium glucose strips.
Ten rats per group were the selected (10 normal SD and 10 hyperglycemic) grown to 5 weeks of age and assessed using OCT and ERG. The hyperglycemic rat group was then split into two subgroups of five, with one subgroup fed tonabersat once daily for 14 days from weeks 5 to 7 at a low dose level of 0.28 mg/kg in 0.5 g peanut butter, with the other subgroup fed 0.5 g peanut butter only. All animals were assessed again using ERG and OCT at 8 weeks of age before euthanizing animals and removing the eyes for immunohistochemical analysis. Data groups were randomized prior to the statistical comparison. In summary, normal SD and hyperglycemic rats were analyzed with OCT and ERG at 5 weeks of age; the hyperglycemic rats were then split into two groups and fed the vehicle or tonabersat for 14 days during weeks 6 and 7 of age. At week 8, animals were again assessed with ERG and OCT and tissues collected for immunohistochemical analysis. Four tonabersat-treated rats were, however, left until 3 months of age before final ERG and OCT and tissue collection.
Electroretinogram Recording—The procedure was performed as described previously. Vessey K A, Wilkinson-Berka J L, Fletcher E L. Characterization of retinal function and glial cell response in a mouse model of oxygen-induced retinopathy. J Comp Neurol. 2011; 519:506-27. Essentially, SD rats were dark-adapted overnight for 12-14 hours before the ERG recording. For the dry AMD, the ERG baseline was recorded for all groups before light damage and at time points after the light damage insult (24 hours, 1 week, 2 weeks and 3 months post intense light). For the DR model, ERGs were recorded at 5 weeks of age to compare normal SD and hyperglycemic rat retinal function. Tonabersat treated and vehicle control hyperglycemic rats were assessed again at 8 weeks of age. After dark adaptation, rats were anaesthetized by an intraperitoneal injection of a combination of ketamine (75 mg/kg, Parnell Technologies, New Zealand) and domitor (0.5 mg/kg, Pfizer, New Zealand). A dim red light generated by a light-emitting diode (λmax=650 nm) was used during manipulations of dark-adapted animals. The corneas were maintained hydrated with 1% carboxymethylcellulose sodium (Celluvisc, Allergan, USA) during ERG recording. Right and left eye ERGs were recorded using gold ring electrodes (Roland Consult Stasche & Finger GmbH, Germany). A U-shaped active electrode was kept in contact with the center of the cornea. […] Normal body temperature was maintained to avoid temperature-driven ERG amplitude fluctuation by placing animals on a 37° C. heated pad. Full-field ERG responses were elicited by a twin-flash ([…] stimulus interval) generated from a photographic flash unit (Nikon SB900 flash, Japan), via a Ganzfeld sphere. […]

[1] = 0.28 mg/kg once daily 14 days, week 8, p<0.001
[2] = 0.28 mg/kg once daily 14 days, week 8, p<0.01

Structure (SMILES): CC(=O)c1ccc2c(c1)[C@H](NC(=O)c1ccc(F)c(Cl)c1)[C@H](O)C(C)(C)O2 [tonabersat, N-[(3S,4S)-6-acetyl-3-hydroxy-2,2-dimethyl-3,4-dihydrochromen-4-yl]-3-chloro-4-fluorobenzamide]
- mixed ERG a-wave, maximum intensity (0.28 mg/kg once daily 14 days, 8 weeks, untreated −370 V): -630 µV
- implicit times (0.28 mg/kg once daily 14 days, week 8): not different
- mixed b-wave signals (0.28 mg/kg once daily 14 days, week 8, all intensities, p<0.001): significantly recovered
- mixed ERG a-wave vs untreated (0.28 mg/kg once daily 14 days, week 8, intensities 0.1-2.1 cd·s/m2, p<0.001): significantly higher
- rod PII amplitude [1]: significantly recovered
- rod PIII amplitude [1]: significantly recovered
- cone PII amplitude [2]: significantly recovered
- summed OPs amplitude [2]: significantly recovered
- mixed b-wave, maximum intensity (0.28 mg/kg once daily 14 days, week 8, untreated controls 400 V): 700 µV
- retinal function compared to vehicle hyperglycemic rats (0.28 mg/kg oral once daily 14 days (weeks 5 to 7), week 8): significantly recovered
